{"source": "patent US20060125896A1", "about": "“Ink tank, ink jet recording method, and ink tank regeneration process” (Canon Kabushiki Kaisha, priority 2004, published 2006)", "assay": "Solubility in pure water with pH 7 at 25° C.", "type": "physicochemical", "conditions": "pH 7, 25° C., compared with the coloring material", "procedure": "In order to inspect depositing quality due to the influence of pH, the solubility in pure water with pH7 at 25° C. has been compared between the compound represented by the general formula (I) or a salt thereof and the compound represented by the general formula (II) to find that the compound represented by the general formula (II) has a lower solubility than the compound represented by the general formula (I) or a salt thereof. This fact also has supported that the compound represented by the general formula (II) has a high depositing quality."}
{"smiles": "O=C([O-])c1ccccc1Nc1nc(O)nc(Nc2ccccc2C(=O)[O-])n1.[Na+].[Na+]", "note": "[Exemplified Compound B]", "values": [{"measurement": "solubility in pure water", "result": "lower than the solubility of Exemplified Compound A"}]}
